Experimental data: US5489609A (Zaidan Hoijn Seisan Kaihatsu Kagaku Kenkyusho, priority 1992, dated 1996)

Legend:
acetaldehyde toxicity = assay: Protective activity against acetaldehyde toxicity (death rate within 24 hours); assay type: in vivo, Rats; details: 30 min before acetaldehyde 1,200 mg/kg, 24 h
Method: Rats kept fasting with a supply of drinking water were weighed and divided into groups in such a manner that the mean body weight was uniform among the groups, with each group consisting of 10 heads. The rats were given acetaldehyde orally at a dose of 1,200 mg/kg, and the death rate within 24 hours was determined, wherein the test drug substances were administered orally 30 min before the application of acetaldehyde, with the vehicle (0.5% aqueous sodium carboxymethylcellulose) alone being given to a control group.

[1] = tested on: isolated liver cells of rats; assay: Disorder of isolated liver cells (carbon tetrachloride vapor; ALT and AST leached out); assay type: cell-based; details: 37° C., 30 min, * p < 0.05
Method: Isolated liver cells of rats were prepared by means of the Segren's collagenase irrigation method, whereby a liver cell suspension was prepared to a concentration of […]. Into 2 ml of the suspension placed in an Erlenmeyer flask was put a test tube of about 0.5 ml capacity containing a 25% carbon tetrachloride solution in olive oil to saturate the reaction system with carbon tetrachloride vapor, and after the flask was tightly stoppered, preincubation was carried out at 37° C. for 30 min. One ml of a solution of the test compound in Hunk's solution was added to the suspension of liver cells, while 1 ml of Hunk's solution was added to a control. After the reaction was allowed to proceed at 37° C. for 30 min, a specifically determined volume of the reaction solution was pipetted out and immediately centrifuged under 500 g for 30 seconds, and ALT and AST leached out into the supernatant liquid were determined for activity by the Lippie method.

[2] = tested on: Hepatopathy in mice (carbon tetrachloride); assay: Anti-hepatitis test: hepatopathy in mice (carbon tetrachloride); assay type: in vivo, ddy strain male mice; details: for ALT, mean ± S.D. / AST, mean ± S.D.: 200 mg/kg orally 3 h after carbon tetrachloride, blood 24 h after carbon tetrachloride, * p < 0.05
Method: A group of 8 ddy strain male mice (weighing about 30 g) kept fasting from the previous day was treated by intraperitoneal injection of 0.5% carbon tetrachloride in olive oil at a dose of 0.6 ml and thereafter allowed free access to food. Three hours after the administration of carbon tetrachloride, the test compound suspended in powdered gum arabic was given to the animals orally at a dose of 200 mg/kg, and blood samples were drawn from the mice under anesthesia with ether through the abdominal descending aorta 24 hours after the administration of carbon tetrachloride. The collected blood was centrifuged at a rate of 3,000 rpm for 15 min, followed by measurement of the activities of aspartate transaminase (AST) and alanine transaminase (ALT) by means of the Lippie method.

[3] = tested on: Stomach injury with hydrochloric acid/ethanol; assay: Anti-ulcer test: stomach injury with hydrochloric acid/ethanol; assay type: in vivo, male rats of KBL Wistar strain
Method: The rats were divided into groups each consisting of 8 heads in such a way that their mean body weights were nearly uniform among the groups, treated by oral administration of hydrochloric acid/ethanol (0.15 mole hydrochloric acid solution in 80% ethanol) at a dose of 5 ml/kg body weight and sacrificed through cervical vertebrae dislocation 1 hour after administration. The stomachs were removed and treated with formalin, and individual ulcers formed in the glandular portion of the stomach were measured in length (mm), with the measured ulcer lengths summed for each rat. The test compound was suspended in a 0.5% aqueous solution of sodium carboxymethylcellulose, and the suspension was given to the test group orally at a dose of 10 ml/kg body weight 30 min before administration of hydrochloric acid/ethanol, whereas the vehicle (0.5% aqueous sodium carboxymethyl-cellulose) alone was applied to a control group.

[4] = tested on: Rats of KBL Wistar strain; assay: Acute toxicity test; assay type: in vivo; details: 7 day period
Method: Rats of KBL Wistar strain (weighing about […]), divided into groups each consisting of 3 heads, were treated through oral administration of the test compound suspended in powder gum arabic, followed by observation for any abnormalities over a 7 day period to find the number of dead animals.

[5] = tested on: Stomach injury through water-immersion constraint stress; assay: Anti-ulcer test: stomach injury through water-immersion constraint stress; assay type: in vivo, male rats of KBL Wistar strain
Method: The rats were divided into groups each consisting of 8 heads in such a way that their mean body weights were nearly uniform among the groups, stress-loaded by soaking the animals placed in a stress cage of Univ. of Tokyo type in a water tank at 23° C. up to the xiphoid and then sacrificed through cervical vertebrae dislocation 7.5 hours later. The stomachs were removed and treated with formalin, and individual ulcers formed in the glandular portion of the stomach were measured in length (mm), with the measured ulcer lengths being summed for each rat. The test compound, suspended in a 0.5% aqueous solution of sodium carboxymethylcellulose, was given to the test group orally at a dose of 10 ml/kg body weight 30 min before the water-soaking constraint, whereas the vehicle alone was applied to a control group.

[6] = conc. of test soln. 0.0125 mg/dl
[7] = conc. of test soln. 0.025 mg/dl
[8] = 50 mg/kg orally, vs Vehicle No. 1
[9] = 150 mg/kg orally, vs Vehicle No. 3

For `NCCS(=O)(=O)O` [2-Aminoethanesulfonic acid], the Death rate (acetaldehyde toxicity; 250 mg/kg orally) was 60%, the “No. of dead animals (n/10)” value (acetaldehyde toxicity; 250 mg/kg orally) was 6/10 and the Death rate (acetaldehyde toxicity; 500 mg/kg orally) was 50%. For the same compound, the “No. of dead animals (n/10)” value (acetaldehyde toxicity; 500 mg/kg orally) was 5/10, the “ALT, mean ± S.D.” value [1, 6] was 847.6 ± 60.4 IU and the “AST, mean ± S.D.” value [1, 6] was 338.8 ± 37.1 IU. The “ALT, mean ± S.D.” value [1, 7] was 869.8 ± 87.6 IU, the “AST, mean ± S.D.” value [1, 7] was 309.8 ± 32.4 IU and the “ALT, mean ± S.D.” value ([1]; conc. of test soln. 0.05 mg/dl) was 849.1 ± 60.2 IU. For the same compound, the “AST, mean ± S.D.” value ([1]; conc. of test soln. 0.05 mg/dl) was 296.3 ± 30.5 IU, the “ALT, mean ± S.D.” value ([1]; conc. of test soln. 0.1 mg/dl) was 867.7 ± 158.8 IU and the “AST, mean ± S.D.” value ([1]; conc. of test soln. 0.1 mg/dl) was 318.8 ± 49.5 IU. The “ALT, mean ± S.D.” value [2] was 14609.6 ± 1684.5 IU, the “AST, mean ± S.D.” value [2] was 12885.2 ± 2468.3 IU and the “suppressory activity (hepatopathy in mice)” value ([2]; 200 mg/kg orally, in words) was “none of 2-aminoethanesulfonic acid, glutathione and glycyrrhizin that were used as controls at the same dose developed suppressory activity”.

For `NCCS(=O)(=O)O.NCCS(=O)(=O)O.NCCS(=O)(=O)[O-].NCCS(=O)(=O)[O-].[Zn+2]` [FTZ, [Bis(2-aminoethanesulfonic acid).bis(2-aminoethanesulfonate)]zinc], the Incidence of ulcer ([3]; 50 mg/kg orally) was 8/8, the “Ulcer coefficient (mm) mean ± S.E.” value ([3]; 50 mg/kg orally, * P < 0.01) was 30.4 ± 7.8 mm and the Suppression % [3, 8] was 35.5%. For the same compound, the Incidence of ulcer ([3]; 75 mg/kg orally) was 8/8, the “Ulcer coefficient (mm) mean ± S.E.” value ([3]; 75 mg/kg orally) was 30.2 ± 10.2 mm and the Suppression % ([3]; 75 mg/kg orally, vs Vehicle No. 2) was 42.5%. The Incidence of ulcer ([3]; 150 mg/kg orally) was 8/8, the “Ulcer coefficient (mm) mean ± S.E.” value ([3]; 150 mg/kg orally, * P < 0.01) was 11.7 ± 4.7 mm and the Suppression % [3, 9] was 67.9%. For the same compound, the “UD50 (mg/kg) (95% C.L.)” value ([3]; oral, 30 min before hydrochloric acid/ethanol) was 86.0 mg/kg, the “Nd/No (No. of dead animals / total No.)” value ([4]; 1,250 mg/kg oral) was 0/3 and the “Nd/No (No. of dead animals / total No.)” value ([4]; 2,500 mg/kg oral) was 0/3. The “Nd/No (No. of dead animals / total No.)” value ([4]; 5,000 mg/kg oral) was 0/3, the Death rate (acetaldehyde toxicity; 250 mg/kg orally) was 40% and the “No. of dead animals (n/10)” value (acetaldehyde toxicity; 250 mg/kg orally) was 4/10. The Death rate (acetaldehyde toxicity; 500 mg/kg orally) was 20%, the “No. of dead animals (n/10)” value (acetaldehyde toxicity; 500 mg/kg orally) was 2/10 and the “ALT, mean ± S.D.” value [1, 6] was 414.7 ± 36.2 IU. The “AST, mean ± S.D.” value [1, 6] was 198.2 ± 22.5 IU, the “ALT, mean ± S.D.” value [1, 7] was 459.0 ± 93.8 IU and the “AST, mean ± S.D.” value [1, 7] was 186.8 ± 35.3 IU. The “ALT, mean ± S.D.” value ([1]; conc. of test soln. 0.05 mg/dl) was 389.2 ± 7.3 IU, the “AST, mean ± S.D.” value ([1]; conc. of test soln. 0.05 mg/dl) was 79.4 ± 12.3 IU and the “ALT, mean ± S.D.” value ([1]; conc. of test soln. 0.1 mg/dl) was 435.7 ± 25.3 IU. For the same compound, the “AST, mean ± S.D.” value ([1]; conc. of test soln. 0.1 mg/dl) was 33.5 ± 3.5 IU, the Incidence of ulcer ([5]; 50 mg/kg orally) was 8/8 and the “Ulcer coefficient (mm) mean ± S.E.” value ([5]; 50 mg/kg orally) was 28.5 ± 4.6 mm. The Suppression % [5, 8] was 10.7%, the Incidence of ulcer ([5]; 100 mg/kg orally) was 8/8 and the “Ulcer coefficient (mm) mean ± S.E.” value ([5]; 100 mg/kg orally, * p < 0.01) was 14.4 ± 3.2 mm. For the same compound, the Suppression % ([5]; 100 mg/kg orally, vs Vehicle No. 2) was 37.1%, the Incidence of ulcer ([5]; 150 mg/kg orally) was 8/8 and the “Ulcer coefficient (mm) mean ± S.E.” value ([5]; 150 mg/kg orally, ** p < 0.01) was 17.9 ± 3.2 mm. For the same compound, the Suppression % [5, 9] was 48.4%, the “UD50 (mg/kg) (95% C.L.)” value ([5]; oral, 30 min before water-soaking constraint) was 146.9 mg/kg and the “ALT, mean ± S.D.” value [2] was 8597.1 ± 1450.4 IU. The “AST, mean ± S.D.” value [2] was 7024.7 ± 1113.4 IU.
